In ChEMBL document CHEMBL1149609, “Synthesis and evaluation of human T cell stimulating activity of an alpha-sulfatide analogue” (Bioorg Med Chem, 2007):
The source made the active and inactive calls. The calls are words filed in the database; no cut-off is given here.

What was measured:
Assay type in all cases: functional
[1] = species: Homo sapiens; assay: Stimulation of CD1d-restricted iNKTcell clone BGA89 assessed as IL4 release after 48 hrs by ELISA
[2] = species: Homo sapiens; assay: Stimulation of sulfatide-specific CD1a-restricted Tcell clone K34B9.1 assessed as gammaIFN release after 48 hrs by ELISA
[3] = species: Homo sapiens; assay: Stimulation of sulfatide-specific CD1a-restricted Tcell clone K34B9.1 assessed as IL4 release after 48 hrs by ELISA
[4] = species: Homo sapiens; assay: Stimulation of CD1d-restricted iNKTcell clone BGA89 assessed as gammaIFN release after 48 hrs by ELISA
[5] = species: Homo sapiens; assay: Stimulation of CD1d-restricted iNKTcell clone BGA01 assessed as gammaIFN release after 48 hrs by ELISA
[6] = species: Homo sapiens; assay: Stimulation of CD1d-restricted iNKTcell clone BGA01 assessed as IL4 release after 48 hrs by ELISA

With `CCCCCCCCCCCCC/C=C/[C@@H](O)[C@H](CO[C@H]1O[C@H](CO)[C@H](O)[C@H](OS(=O)(=O)O)[C@H]1O)NC(=O)CCCCCCCCCCCCCCCCCCCCC` the Activity [1] was “Active”, the Activity [2] was “inactive” and the Activity [3] was “inactive”. The Activity [4] was “Active”, the Activity [5] was “Active” and the Activity [6] was “Active”.
